Laboratory results as given in patent publication US20210322452A1, “COGNITIVE FUNCTION IMPROVING COMPOSITION COMPRISING NOVEL POST FERMENTED TEA-DERIVED KAEMPFEROL-BASED COMPOUND” (AMOREPACIFIC CORPORATION, priority 2016, published 2021).

How the values were obtained:
[1] = test system: BDNF (brain-derived neurotrophic factor); assay: Expression level of intracellular BDNF in SH-SY5Y cells (real-time quantitative PCR); assay type: cell-based; conditions: 24 hours, mRNA vs GAPDH, untreated = 100
Procedure: (§1) Specifically, SH-SY5Y (neuroblastoma, Korean Cell Line Bank) cell line was seeded in a 6-well plate (FALCON) at 2×10^6 cells per well, cultured in an incubator containing 5% CO2 at 37° C. for 24 hours, then treated with 10 μg/ml of GCG, 10 μM of EGCG, 10 μg/ml of the existing green tea extract (GTE), 10 μg/ml of the novel substance 33, and 1 μM of 5-Aza-2′deoxycytidine (5-Aza, Sigma-aldrich) as a positive control group, and further cultured for 24 hours. Thereafter, the medium was entirely removed therefrom, and RNA was extracted therefrom using an RNA extraction kit (RNeasy mini kit, Quiagen). The extracted mRNA was quantitated using an ultraviolet detector (TECAN), and then 1 μg of mRNA was synthesized into a complementary DNA using a kit (SuperScript VILO cDNA Synthesis Kit, Thermofisher Scientific). Approximately 1 μg of the complementary DNA was taken and subjected to the real-time quantitative chain reaction using Taqman probe (Life technology) and Quantitect Probe PCR Kit (Quiagen). The expression levels of BDNF and DNMT1 were thus confirmed. At this time, the housekeeping gene, GAPDH, was used as the reference mRNA.

[2] = test system: DNMT1 (DNA (cytosine-5)-methyltransferase 1); assay: Expression level of intracellular DNMT1 in SH-SY5Y cells (real-time quantitative PCR); assay type: cell-based; conditions: 24 hours, mRNA vs GAPDH, untreated = 100
Procedure: as §1

[3] = target: T1, beta amyloid (Aβ1-42) (Homo sapiens, UniProt P05067); assay: Inhibition of beta amyloid aggregation, fluorescence analysis (ThioflavinT assay); assay type: biochemical; conditions: compound 10 μM; for Increased RFU (amount of aggregated beta amyloid): Aβ1-42 0.1 mg/ml, thioflavinT, 37° C., 150 minutes; for Increased RFU (% of Pos. Cont.): Pos. Cont. (only beta amyloid, no compound) = 100%; for inhibition at 10 µM: aggregation in positive control group taken as 100%, read-out: inhibition of beta amyloid aggregation compared with the positive control group
T1 construct: beta amyloid (Aβ1-42, AnaSpec Inc., USA) was obtained; purchased AnaSpec Inc., USA
T1 sequence (P05067 672-713 limits assumed): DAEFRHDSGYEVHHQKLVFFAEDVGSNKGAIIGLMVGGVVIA
Procedure: The effect of kaempferol3-O-[2-O″-(E)-p-coumaroyl][beta-D-glucopyranosyl-(1→3)-O-alpha-L-rhamnopyranosyl-(1→6)-O-beta-D-glucopyranoside] on inhibition of beta amyloid aggregation was confirmed by the fluorescence analysis (ThioflavinT assay).
Specifically, beta amyloid (Aβ1-42, AnaSpec Inc., USA) was obtained and used at a concentration of 0.1 mg/ml and stored at −80° C. before use. Morin (20 μM), phenol red (20 μM), and kaempferol3-O-[2-O″-(E)-p-coumaroyl][beta-D-glucopyranosyl-(1→3)-O-alpha-L-rhamnopyranosyl-(1→6)-O-beta-D-glucopyranoside] (1 mg/ml) were respectively diluted with DMSO so as to be adjusted to the concentrations.
In order to specify the degree of inhibition of Aβ1-42 aggregation, each of the compounds prepared at the above concentrations was diluted with 50 μL of 0.01 M sodium phosphate buffer solution to have a concentration of 10 μM, then 40 μL of 0.1 mg/ml of Aβ1-42 was added thereto, and then 10 μl of 2 mM thioflavinT was added thereto, and fluorescence was measured using a fluorescence spectrometer (RF-5300PC, SHIMADZU CORPORATION, Japan) at 37° C. for 150 minutes at intervals of 5 minutes.

[4] = test system: skin; assay: Human repeated insult patch tests (HRIPT), cumulative skin irritation; assay type: in vivo; parameters: key to skin reactivity (ICDRG criteria): −: Negative (no reaction); ±: Suspicious or mild erythema and the like; +: Weak reaction (not accompanied by small vesicula), erythema, papule; ++: Moderate reaction (with small vesicula), erythema, papule, vesicula; +++: Strong reaction, bulla reaction; conditions: for Number of subjects showed ±, +, or ++ reactivity, 1st time: 1st patch; for Number of subjects showed ±, +, or ++ reactivity, 1st time / Number of subjects showed ±, +, or ++ reactivity, 2nd time / Number of subjects showed ±, +, or ++ reactivity, 3rd time / Number of subjects showed ±, +, or ++ reactivity, 4th time / Number of subjects showed ±, +, or ++ reactivity, 5th time / Number of subjects showed ±, +, or ++ reactivity, 6th time / Number of subjects showed ±, +, or ++ reactivity, 7 th time / Number of subjects showed ±, +, or ++ reactivity, 8 th time / Number of subjects showed ±, +, or ++ reactivity, 9th time: three lines per group (±, +, ++; lines not labelled); for Number of subjects showed ±, +, or ++ reactivity, 2nd time: 2nd patch; for Number of subjects showed ±, +, or ++ reactivity, 3rd time: 3rd patch; for Number of subjects showed ±, +, or ++ reactivity, 4th time: 4th patch; for Number of subjects showed ±, +, or ++ reactivity, 5th time: 5th patch; for Number of subjects showed ±, +, or ++ reactivity, 6th time: 6th patch; for Number of subjects showed ±, +, or ++ reactivity, 7 th time: 7th patch; for Number of subjects showed ±, +, or ++ reactivity, 8 th time: 8th patch; for Number of subjects showed ±, +, or ++ reactivity, 9th time: 9th patch; for Average reactivity: safe when less than 3
Procedure: Human repeated insult patch tests (HRIPT) were conducted to determine the cumulative skin irritation by kaempferol3-O-[2-O″-(E)-p-coumaroyl][beta-D-glucopyranosyl-(1→3)-O-alpha-L-rhamnopyranosyl-(1→6)-O-beta-D-glucopyranoside] and to calculate the concentration range in which kaempferol3-O-[2-O″-(E)-p-coumaroyl][beta-D-glucopyranosyl-(1→3)-O-alpha-L-rhamnopyranosyl-(1→6)-O-beta-D-glucopyranoside] can be used on the skin.
Specifically, 15 healthy adult subjects were randomly selected, the test compositions (compositions for skin containing an emulsifier, a stabilizer, purified water, and the like in addition to the compound) containing the compound at 0.5 wt %, 1 wt %, and 3 wt % were dropped by 20 μl per chamber (IQ chamber, Epitest Ltd, Finland), and the patch was applied to the right side of the upper back of the subject and then replaced with new one after 24 hours. The skin reaction was examined before and after the patch test while the patch test was conducted three times a week and thus nine times for three weeks in total in this manner, the skin reaction was observed until the 48th hour after removal of the final patch, and the average reactivity was determined.
The skin reaction was judged according to the criteria of the International Contact Dermatitis Research Group (ICDRG). In the above table, “Novel substance 33” denotes kaempferol3-O-[2-O″-(E)-p-coumaroyl][beta-D-glucopyranosyl-(1→3)-O-alpha-L-rhamnopyranosyl-(1→6)-O-beta-D-glucopyranoside].

In the case of `Nc1ncn([C@H]2C[C@H](O)[C@@H](CO)O2)c(=O)n1` [5-Aza-2′deoxycytidine, reference compound], the “Relative expression level of BDNF” value ([1]; 1 μM) is reported as 149% and the “Relative expression level of DNMT1” value ([2]; 1 μM) is reported as 65%.

`O=c1c(O)c(-c2ccc(O)cc2O)oc2cc(O)cc(O)c12` [Morin] was tested, and the “Increased RFU (amount of aggregated beta amyloid)” value [3] was 11471 RFU, the “Increased RFU (% of Pos. Cont.)” value [3] was 78.6% and the inhibition at 10 µM [3] was 21.4%.

In the case of `CC1OC(OCC2OC(Oc3c(-c4ccc(O)cc4)oc4cc(O)cc(O)c4c3=O)C(OC(=O)/C=C/c3ccc(O)cc3)C(O)C2O)C(O)C(OC2OC(CO)C(O)C(O)C2O)C1O` [Novel substance 33, kaempferol3-O-[2-O″-(E)-p-coumaroyl][beta-D-glucopyranosyl-(1→3)-O-alpha-L-rhamnopyranosyl-(1→6)-O-beta-D-glucopyranoside]], the “Increased RFU (amount of aggregated beta amyloid)” value [3] is reported as 11235 RFU, the “Increased RFU (% of Pos. Cont.)” value [3] is reported as 77.0% and the inhibition at 10 µM [3] is reported as 23%. For the same compound, the “Number of subjects showed ±, +, or ++ reactivity, 1st time” value (“Number of subjects showed ± … 1st time” below) ([4]; 0.5 wt %) was 0 persons, the “Number of subjects showed ±, +, or ++ reactivity, 2nd time” value (from here on “Number of subjects showed ± … 2nd time”) ([4]; 0.5 wt %) was 0 persons and the “Number of subjects showed ±, +, or ++ reactivity, 3rd time” value (shortened to “Number of subjects showed ± … 3rd time”) ([4]; 0.5 wt %) was 0 persons. For the same compound, the “Number of subjects showed ±, +, or ++ reactivity, 4th time” value (“Number of subjects showed ± … 4th time” below) ([4]; 0.5 wt %) was 0 persons, the “Number of subjects showed ±, +, or ++ reactivity, 5th time” value (from here on “Number of subjects showed ± … 5th time”) ([4]; 0.5 wt %) was 0 persons and the “Number of subjects showed ±, +, or ++ reactivity, 6th time” value (shortened to “Number of subjects showed ± … 6th time”) ([4]; 0.5 wt %) was 0 persons. The “Number of subjects showed ±, +, or ++ reactivity, 7 th time” value (“Number of subjects showed ± … 7 th time” below) ([4]; 0.5 wt %) was 0 persons, the “Number of subjects showed ±, +, or ++ reactivity, 8 th time” value (shortened to “Number of subjects showed ± … 8 th time”) ([4]; 0.5 wt %) was 0 persons and the “Number of subjects showed ±, +, or ++ reactivity, 9th time” value (“Number of subjects showed ± … 9th time” for short) ([4]; 0.5 wt %) was 0 persons. For the same compound, the Average reactivity ([4]; 0.5 wt %) was 0, the “Number of subjects showed ± … 1st time” value ([4]; 1 wt %) was 0 persons and the “Number of subjects showed ± … 2nd time” value ([4]; 1 wt %) was 0 persons. The “Number of subjects showed ± … 3rd time” value ([4]; 1 wt %) was 0 persons, the “Number of subjects showed ± … 4th time” value ([4]; 1 wt %) was 0 persons and the “Number of subjects showed ± … 5th time” value ([4]; 1 wt %) was 0 persons. The “Number of subjects showed ± … 6th time” value ([4]; 1 wt %) was 0 persons, the “Number of subjects showed ± … 7 th time” value ([4]; 1 wt %) was 0 persons and the “Number of subjects showed ± … 8 th time” value ([4]; 1 wt %) was 0 persons. For the same compound, the “Number of subjects showed ± … 9th time” value ([4]; 1 wt %) was 0 persons, the Average reactivity ([4]; 1 wt %) was 0 and the “Number of subjects showed ± … 1st time” value ([4]; 3 wt %) was 0 persons. For the same compound, the “Number of subjects showed ± … 2nd time” value ([4]; 3 wt %) was 0 persons, the “Number of subjects showed ± … 3rd time” value ([4]; 3 wt %) was 0 persons and the “Number of subjects showed ± … 4th time” value ([4]; 3 wt %) was 0 persons. For the same compound, the “Number of subjects showed ± … 5th time” value ([4]; 3 wt %) was 0 persons, the “Number of subjects showed ± … 6th time” value ([4]; 3 wt %) was 0 persons and the “Number of subjects showed ± … 7 th time” value ([4]; 3 wt %) was 0 persons. The “Number of subjects showed ± … 8 th time” value ([4]; 3 wt %) was 0 persons, the “Number of subjects showed ± … 9th time” value ([4]; 3 wt %) was 0 persons and the Average reactivity ([4]; 3 wt %) was 0. The “skin reactivity (ICDRG criteria)” value ([4]; all the content ranges (0.5, 1, 3 wt %), 15 subjects, 9 patches in 3 weeks) was “−”, the “Relative expression level of BDNF” value ([1]; 10 μg/ml) was 128% and the “Relative expression level of DNMT1” value ([2]; 10 μg/ml) was 78%.

`O=S1(=O)OC(c2ccc(O)cc2)(c2ccc(O)cc2)c2ccccc21` [Phenol Red] was tested, and the “Increased RFU (% of Pos. Cont.)” value [3] was 93.6% and the inhibition at 10 µM [3] was 6.4%.
